Experimental data: patent US20070287699A1, “ANTIVIRAL AGENTS” (ViroBay, Inc., priority 2006, published 2007)
pIC50: −log10 of the molar value.

system: HCV replicon RNA replication in human Huh7 hepatoma cells; test: HCV replicon assay (activity levels from either or both of HCV replicon assay 1, Huh7/Clone A RT-qPCR, and assay 2, Huh7 ET luc-ubi-neo/ET); format: cell-based, Hepatitis C virus (HCV); conditions: Hepatitis C virus, Huh-7, either or both HCV replicon assays: Huh7/Clone A, 48 hours, 72 hours, Luc activity or RT-PCR, read-out: inhibit HCV replication at IC50 levels or estimated IC50 levels
Text: The HCV replicon assay is a cell-culture system that mimics in vivo HCV replication and provides a system to study HCV replication in vitro. It was created by transfecting cloned viral RNA derived from a consensus HCV genomic sequence into human Huh7 hepatoma cells that are semi-permissive for viral RNA production (Lohmann V., Korner F., Koch J.-O., Herian U., Theilmann L. and Bartenschlager R. (1999). Replication of subgenomic Hepatitis C virus RNAs in a hepatoma cell line. Science 285, 110-113 and Blight K. J., Kolykhalov A. A. and Rice C. M. (2000). Efficient initiation of HCV RNA Replication in cell culture. Science 290, […]). These transfected cell lines contain a subgenomic HCV RNA genome that includes (1) the HCV 5′NTR fused to 12 amino acids of the capsid coding region, (2) the neomycin phosphotransferase gene (Neo) as a selectable marker, (3) the internal ribosome entry site (IRES) from encephalomyocarditis virus (EMCV) that directs translation of HCV non-structural proteins (variously NS2 or NS3 to NS5B), and (4) the 3′ NTR. Replicon-containing cells autonomously and persistently replicate HCV RNA that can be measured quantitatively by real-time qPCR. Therefore, the replicon system facilitates quantitative assessment of anti-viral activity by monitoring changes in HCV RNA replication in a cell-based assay.
HCV replicon-containing cells (Huh7/Clone A) were routinely maintained in Clone A growth medium (DMEM medium [Invitrogen], supplemented with 10% Fetal Bovine Serum, 1% Non Essential Amino Acids and 1 g/L G418). Test compounds were dissolved in dimethyl sulfoxide (DMSO) to make 200× stock solutions for all doses prior to treatment.
For the HCV replicon assay, Huh7/Clone A cells were trypsinized from culture flasks, seeded in 1 ml of Clone A growth medium without G418 at 4×10^4 cells per well in 24-well plates and incubated at 37° C. in a humidified CO2 (5%) incubator overnight. Following overnight incubation, compound solutions were added into wells in the same volume (5 μl of 200× compound stock per well) to give a final DMSO concentration of 0.5%. Three wells on each plate supplemented with 5 μl of DMSO served as untreated controls. For IC50 determinations, compounds were tested at 7 serial dilutions in triplicates from the starting stock solutions. The plates were incubated at 37° C. for 48 hours. After incubation, cells were harvested, transferred to 96-well plates, and subjected to total RNA extraction using the RNA Isolation Kit (RNeasy 96, Qiagen) according to the protocol described by the manufacture's RNeasy 96 Handbook (Qiagen).
Total RNA eluted in 130 μl of RNase-free dH2O was quantitated by the RiboGreen Assay according to the supplier's protocol (Molecular Probe). Briefly, 5 μl of RNA samples were aliquoted in duplicate to a 96-well black microplate and a 96-well TaqMan Optical plate. RNA samples in the black microplate were mixed with 95 μl of diluted RiboGreen:reagent (1:250 dilution in TE buffer) and sample fluorescence was measured using a fluorescence microplate reader at standard fluorescein wavelengths (excitation ˜480 nm, emission ˜520 nm). Ribosomal RNA (Molecular Probe) was used as standard.
TaqMan quantitative PCR (RT-qPCR) was used to quantitate the amount of HCV replicon RNA in each sample. The RT-qPCR reactions were performed in 25 μl on an ABI PRISM 7900 HT Sequence Detection System (Applied Biosystems). The reaction mixture contained 5 μl of total RNA (10-100 ng), 1× TaqMan Buffer A (Applied Biosystems), 5.5 mM MgCl2, 1.2 mM dNTP mix, 0.625 U of AmpliTaq Gold (Applied Biosystems), 5 U of MMLV reverse transcriptase (Promega), 5 U of rRNasin (Promega), 300 nM each of the forward and reverse primers, and 100 nM TaqMan MGB probe. Primers and probe were designed to hybridize to a portion of the neomycin resistance gene (neo) in the replicon and the sequences are as follows: forward primer 5′-GGCTACCTGCCCATTCGA-3′; reverse primer 5′-CCGGCTTCCATCCGAGTAC-3′; MGB probe 5′-CCACCAAGCGAAACA-3′. […]

**Q.** How did the pIC50 turn out when `CCCCCc1nc(-c2cn(Cc3ccc(C(F)(F)F)cc3F)c3cc(N4CCN(C)CC4)c(F)cc3c2=O)no1` [Compound 40, 6-fluoro-1-(2-fluoro-4-trifluoromethyl-benzyl)-7-(4-methyl-piperazin-1-yl)-3-(5-pentyl-[1,2,4]oxadiazol-3-yl)-1H-quinolin-4-one] was run?
**A.** The pIC50 was over 5.70.

**Q.** How did the pIC50 turn out when `CN1CCN(c2cc3c(cc2F)c(=O)c(-c2noc(Cc4ccccc4)n2)cn3Cc2c(F)cccc2Cl)CC1` [Compound 41, 3-(5-benzyl-[1,2,4]oxadiazol-3-yl)-1-(2-chloro-6-fluoro-benzyl)-6-fluoro-7-(4-methyl-piperazin-1-yl)-1H-quinolin-4-one] was run?
**A.** Its pIC50 is under 5.00.

**Q.** `CN1CCN(c2cc3c(cc2F)c(=O)c(-c2noc(Cc4ccc(F)cc4)n2)cn3Cc2c(F)cccc2Cl)CC1` [Compound 42, 1-(2-chloro-6-fluoro-benzyl)-6-fluoro-3-[5-(4-fluoro-benzyl)-[1,2,4]oxadiazol-3-yl]-7-(4-methyl-piperazin-1-yl)-1H-quinolin-4-one] was tested. Which pIC50 did it give?
**A.** The pIC50 was over 5.00.

**Q.** `O=C(O)c1ccc2c(c1)c(=O)c(-c1noc(Cc3ccccc3)n1)cn2Cc1ccc(C(F)(F)F)cc1F` [Compound 43, 3-(5-benzyl-[1,2,4]oxadiazol-3-yl)-1-(2-fluoro-4-trifluoromethyl-benzyl)-4-oxo-1,4-dihydro-quinoline-6-carboxylic acid] was tested. Which pIC50 did it give?
**A.** Its pIC50 is under 5.00.

**Q.** `CN1CCN(c2cc3c(cc2F)c(=O)c(-c2noc(Cc4ccc(F)cc4)n2)cn3Cc2ccc(F)cc2F)CC1` [Compound 44, 1-(2,4-difluoro-benzyl)-6-fluoro-3-[5-(4-fluoro-benzyl)-[1,2,4]oxadiazol-3-yl]-7-(4-methyl-piperazin-1-yl)-1H-quinolin-4-one] was tested. Which pIC50 did it give?
**A.** The pIC50 was over 5.70.

**Q.** `CN1CCN(c2cc3c(cc2F)c(=O)c(-c2noc(Cc4ccccc4)n2)cn3Cc2ccccc2F)CC1` [Compound 45, 3-(5-benzyl-[1,2,4]oxadiazol-3-yl)-6-fluoro-1-(2-fluoro-benzyl)-7-(4-methyl-piperazin-1-yl)-1H-quinolin-4-one] was tested. Which pIC50 did it give?
**A.** The pIC50 was over 5.00.

**Q.** How did the pIC50 turn out when `CN1CCN(c2cc3c(cc2F)c(=O)c(-c2noc(Cc4cc(F)cc(F)c4)n2)cn3Cc2ccc(Cl)cc2)CC1` [Compound 46, 1-(4-chloro-benzyl)-3-[5-(3,5-difluoro-benzyl)-[1,2,4]oxadiazol-3-yl]-6-fluoro-7-(4-methyl-piperazin-1-yl)-1H-quinolin-4-one] was run?
**A.** The pIC50 was over 5.00.

**Q.** With `CN1CCN(c2cc3c(cc2F)c(=O)c(-c2noc(Cc4ccc(F)cc4)n2)cn3Cc2ccccc2F)CC1` [Compound 47, 6-fluoro-3-[5-(4-fluoro-benzyl)-[1,2,4]oxadiazol-3-yl]-1-(2-fluoro-benzyl)-7-(4-methyl-piperazin-1-yl)-1H-quinolin-4-one] as the molecule, how does the pIC50 read?
**A.** Its pIC50 is over 5.00.

**Q.** With `CN1CCN(c2cc3c(cc2F)c(=O)c(-c2noc(Cc4ccccc4)n2)cn3Cc2c(F)cccc2F)CC1` [Compound 48, 3-(5-benzyl-[1,2,4]oxadiazol-3-yl)-1-(2,6-difluoro-benzyl)-6-fluoro-7-(4-methyl-piperazin-1-yl)-1H-quinolin-4-one] as the molecule, how does the pIC50 read?
**A.** Its pIC50 is over 5.00.

**Q.** How did the pIC50 turn out when `CN1CCN(c2cc3c(cc2F)c(=O)c(-c2noc(Cc4ccc(F)cc4)n2)cn3Cc2c(F)cccc2F)CC1` [Compound 49, 1-(2,6-difluoro-benzyl)-6-fluoro-3-[5-(4-fluoro-benzyl)-[1,2,4]oxadiazol-3-yl]-7-(4-methyl-piperazin-1-yl)-1H-quinolin-4-one] was run?
**A.** The pIC50 was over 5.00.

**Q.** How did the pIC50 turn out when `O=c1c(-c2noc(Cc3ccc(F)cc3)n2)cn(Cc2ccc(Cl)cc2)c2cc(N3CCN(c4ccccn4)CC3)c(F)cc12` [Compound 50, 1-(4-chlorobenzyl)-6-fluoro-3-(5-(4-fluorobenzyl)-1,2,4-oxadiazol-3-yl)-7-(4-(pyridin-2-yl)piperazin-1-yl)quinolin-4(1H)-one] was run?
**A.** The pIC50 was under 5.00.

**Q.** How did the pIC50 turn out when `CN(C)c1cc2c(cc1F)c(=O)c(-c1noc(Cc3ccccc3)n1)cn2Cc1ccc(C(F)(F)F)cc1F` [Compound 51, 3-(5-benzyl-[1,2,4]oxadiazol-3-yl)-7-dimethylamino-6-fluoro-1-(2-fluoro-4-trifluoromethyl-benzyl)-1H-quinolin-4-one] was run?
**A.** Its pIC50 is under 5.00.

**Q.** With `CN1CCN(c2cc3c(cc2F)c(=O)c(-c2noc(CN4CCCCC4)n2)cn3Cc2ccc(Cl)cc2)CC1` [Compound 52, 1-(4-chloro-benzyl)-6-fluoro-7-(4-methyl-piperazin-1-yl)-3-(5-piperidin-1-ylmethyl-[1,2,4]oxadiazol-3-yl)-1H-quinolin-4-one] as the molecule, how does the pIC50 read?
**A.** Its pIC50 is under 5.00.

**Q.** With `CN1CCN(c2cc3c(cc2F)c(=O)c(-c2noc(C(CC#N)c4ccccc4)n2)cn3Cc2ccc(Cl)cc2)CC1` (stereo not drawn) [Compound 53, 3-{3-[1-(4-chloro-benzyl)-6-fluoro-7-(4-methyl-piperazin-1-yl)-4-oxo-1,4-dihydro-quinolin-3-yl]-[1,2,4]oxadiazol-5-yl}-3-phenyl-propionitrile] as the molecule, how does the pIC50 read?
**A.** Its pIC50 is over 5.00.

**Q.** `CN1CCN(c2cc3c(cc2F)c(=O)c(-c2noc(CN4CCCC4)n2)cn3Cc2ccc(Cl)cc2)CC1` [Compound 54, 1-(4-chloro-benzyl)-6-fluoro-7-(4-methyl-piperazin-1-yl)-3-(5-pyrrolidin-1-ylmethyl-[1,2,4]oxadiazol-3-yl)-1H-quinolin-4-one] was tested. Which pIC50 did it give?
**A.** Its pIC50 is under 5.00.

**Q.** `CNc1cc2c(cc1F)c(=O)c(-c1noc(Cc3ccccc3)n1)cn2Cc1ccc(C(F)(F)F)cc1F` [Compound 55, 3-(5-Benzyl-[1,2,4]oxadiazol-3-yl)-6-fluoro-1-(2-fluoro-4-trifluoromethyl-benzyl)-7-methylamino-1H-quinolin-4-one] was tested. Which pIC50 did it give?
**A.** Its pIC50 is under 5.00.

**Q.** How did the pIC50 turn out when `O=c1c(-c2noc(Cc3ccccc3)n2)cn(Cc2ccc(C(F)(F)F)cc2F)c2cc(-n3ccnc3)c(F)cc12` [Compound 56, 3-(5-benzyl-[1,2,4]oxadiazol-3-yl)-6-fluoro-1-(2-fluoro-4-trifluoromethyl-benzyl)-7-imidazol-1-yl-1H-quinolin-4-one] was run?
**A.** Its pIC50 is over 5.70.

**Q.** With `Cc1cn(-c2cc3c(cc2F)c(=O)c(-c2noc(Cc4ccccc4)n2)cn3Cc2ccc(C(F)(F)F)cc2F)cn1` [Compound 57, 3-(5-benzyl-[1,2,4]oxadiazol-3-yl)-6-fluoro-1-(2-fluoro-4-trifluoromethyl-benzyl)-7-(4-methyl-imidazol-1-yl)-1H-quinolin-4-one] as the molecule, how does the pIC50 read?
**A.** Its pIC50 is over 5.00.

**Q.** With `CN1CCN(c2cc3c(cc2F)c(=O)c(-c2noc(Cc4ccc(F)cc4)n2)cn3CCN2CCOCC2)CC1` [Compound 58, 6-fluoro-3-[5-(4-fluoro-benzyl)-[1,2,4]oxadiazol-3-yl]-7-(4-methyl-piperazin-1-yl)-1-(2-morpholin-4-yl-ethyl)-1H-quinolin-4-one] as the molecule, how does the pIC50 read?
**A.** Its pIC50 is under 5.00.

**Q.** With `CN1CCN(c2cc3c(cc2F)c(=O)c(-c2noc(Cc4ccccc4)n2)cn3CCN2CCOCC2)CC1` [Compound 59, 3-(5-benzyl-[1,2,4]oxadiazol-3-yl)-6-fluoro-7-(4-methyl-piperazin-1-yl)-1-(2-morpholin-4-yl-ethyl)-1H-quinolin-4-one] as the molecule, how does the pIC50 read?
**A.** Its pIC50 is under 5.00.

**Q.** `CN1CCN(c2cc3c(cc2F)c(=O)c(-c2noc(C(CC(N)=O)c4ccccc4)n2)cn3Cc2ccc(Cl)cc2)CC1` (stereo not drawn) [Compound 60, 3-{3-[1-(4-chloro-benzyl)-6-fluoro-7-(4-methyl-piperazin-1-yl)-4-oxo-1,4-dihydro-quinolin-3-yl]-[1,2,4]oxadiazol-5-yl}-3-phenyl-propionamide] was tested. Which pIC50 did it give?
**A.** Its pIC50 is under 5.00.
